From publication PMC5807445, “A printable hydrogel microarray for drug screening avoids false positives associated with promiscuous aggregating inhibitors” (Nature Communications, 2018)

Columns and labels:
β-lactamase = settings: reported literature values; cited from earlier work
TEM-1 β-lac [1] = target: T1, TEM-1 β-lac (Escherichia coli, UniProt P62593); assay: Solution-based β-lac assay (nitrocefin hydrolysis, absorbance at 492 nm); type: biochemical; settings: promiscuous aggregating inhibitors; diluted from 10 mM DMSO stocks
TEM-1 β-lac [2] = target: T1, TEM-1 β-lac; assay: Printed hydrogel-based β-lac assay (nitrocefin, colorimetric image analysis); type: biochemical; settings: promiscuous aggregating inhibitors; starting concentration 100 μM
Protocol: Inhibitor solutions and nitrocefin (a colorimetric β-lac substrate) were subsequently deposited on the microzones at different concentrations using a high-throughput dispensing robot. The resulting colorimetric read-out of β-lac activity was quantified via image analysis.
POH ink solution was prepared with a final concentration of 50 nM β-lac and used to print hydrogel spots on a 96-well paper microzone plate as described previously. […] The inhibitor was incubated with the printed β-lac for 20 min, after which the assay was initiated with the addition of 5 μl of nitrocefin (500 μM) to each microzone. […] Images were taken with a Canon DSLR camera (operated in manual focus mode without flash) after 25 min. The wax-printed background was filtered out using GIMP software (Version 2.8.16). Image analysis was performed using Fiji, with the converted substrate color extracted using the Color Deconvolution plugin. Extracted images were inverted and converted to 8 bit grayscale images. The intensity of each sample was measured and presented as a ratio of the control image (i.e., a microzone not treated with inhibitor). Calculation of IC50 values was carried out in OriginPro by plotting the calculated percentage inhibition against the added inhibitor concentration. Curve fitting was performed with the dose–response function (OriginLab Corporation, Northampton, MA, USA).

[3] = Promiscuous aggregating inhibitor size measurement by dynamic light scattering (DLS); type: physicochemical; settings: 100 μM solutions; for Aggregate size (Z-average diameter, DLS) / Polydispersity (DLS): 23°C
Protocol: Promiscuous aggregating inhibitor size measurement
Dynamic light scattering measurements were performed using a Zetasizer Nano ZS instrument (Malvern). The intensity of backscattered light was measured at a 173° angle. Data collection and analysis were performed using the Dispersion Technology Software (version 6.0) from Malvern. Samples of Rottlerin, BIS IX and TIPT at 100 μM concentrations were analyzed in a plastic cuvette with a 10 mm path length. Prior to measurement, samples were equilibrated for 120 s at 23°C. For each sample, 10 runs were performed with three repetitions. The intensity size distribution, Z-average diameter and polydispersity index was collected for each sample. Note that no significant signal was acquired from DLS measurements on the true inhibitors, confirming their solution state.

T1 sequence (P62593 24-286 limits assumed): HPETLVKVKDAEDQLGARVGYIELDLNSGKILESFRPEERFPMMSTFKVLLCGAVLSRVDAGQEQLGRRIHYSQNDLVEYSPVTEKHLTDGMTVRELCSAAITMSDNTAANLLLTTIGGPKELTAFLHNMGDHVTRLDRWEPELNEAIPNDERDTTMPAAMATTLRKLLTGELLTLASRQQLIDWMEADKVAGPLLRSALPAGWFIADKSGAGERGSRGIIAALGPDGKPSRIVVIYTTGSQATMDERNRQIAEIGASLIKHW

Row | SMILES | IC50 (β-lactamase) | Inhibition of β-lac in the solution-based assay (false-positive hit) (TEM-1 β-lac [1]) | Specific inhibition of β-lac in the hydrogel-based assay (TEM-1 β-lac [2]) | Particle size range of aggregates (DLS intensity distribution) [3] | Aggregate size (Z-average diameter, DLS) [3] | Polydispersity (DLS) [3]
1 | C[C@]1(Cn2ccnn2)[C@H](C(=O)O)N2C(=O)C[C@H]2S1(=O)=O [Tazobactam, tazobactam] | 0.04 µM | – | – | – | – | –
2 | CC(=O)c1c(O)c(C)c(O)c(Cc2c(O)c3c(c(C(=O)/C=C/c4ccccc4)c2O)OC(C)(C)C=C3)c1O [Rottlerin, rottlerin] | – | inhibited | no specific inhibition | 50-800 nm | 188 ± 1 nm | 0.24 ± 0.01
3 | CC1(C)[C@H](C(=O)O)N2C(=O)C[C@H]2S1(=O)=O [Sulbactam, sulbactam] | 6.1 µM | – | – | – | – | –
4 | [H]/N=C(/N)SCCCn1cc(C2=C(c3cn(C)c4ccccc34)C(=O)NC2=O)c2ccccc21 [BIS IX, bisindolylmaleimide IX] | – | inhibited | no specific inhibition | 50-800 nm | 365 ± 9 nm | 0.36 ± 0.02
5 | O=C1OC(c2cc(I)c(O)c(I)c2)(c2c(I)cc(O)cc2I)c2ccccc21 (centres unmarked) [TIPT, tetraiodophenolphthalein] | – | inhibited | no specific inhibition | 50-800 nm | 154 ± 1 nm | 0.16 ± 0.02
